Laboratory results published in the NIST ThermoML archive (doi:10.1021/je900437b).

Test: xn = mol fraction of the nth substance listed
Conditions: 101 kPa, Liquid; for speed of sound: Sing-around technique in a fixed-path interferometer; for mass density: Vibrating tube method

CN(CCO)CCO [N-methyldiethanolamine] + NCCO
Conditions	mass density [kg/m3]	speed of sound [m/s]
293.15 K, x2 = 0	1042.2	1585.5
293.15 K, x2 = 0.1789	1040.32	1603.7
293.15 K, x2 = 0.3286	1038.49	1622.3
293.15 K, x2 = 0.456	1036.46	1640
293.15 K, x2 = 0.5691	1034.2	1656.3
293.15 K, x2 = 0.6614	1031.81	1671.6
293.15 K, x2 = 0.7451	1029.17	1686
293.15 K, x2 = 0.8197	1026.39	1698.7
293.15 K, x2 = 0.854	1025	1705.5
293.15 K, x2 = 0.8865	1023.48	1712
293.15 K, x2 = 0.9461	1020.22	1723.3
293.15 K, x2 = 0.9738	1018.27	1729.4
298.15 K, x2 = 0	1038.29	1570.1
298.15 K, x2 = 0.1789	1036.35	1588.5
298.15 K, x2 = 0.3286	1034.46	1607.1
298.15 K, x2 = 0.456	1032.46	1624.7
298.15 K, x2 = 0.5691	1030.16	1641
298.15 K, x2 = 0.6614	1027.72	1656.2
298.15 K, x2 = 0.7451	1025.1	1670.5
298.15 K, x2 = 0.8197	1022.32	1683.1
298.15 K, x2 = 0.854	1020.84	1689.8
298.15 K, x2 = 0.8865	1019.33	1696.3
298.15 K, x2 = 0.9461	1016.09	1707.3
298.15 K, x2 = 0.9738	1014.2	1713.3
303.15 K, x2 = 0	1034.36	1554.8
303.15 K, x2 = 0.1789	1032.34	1573.4
303.15 K, x2 = 0.3286	1030.41	1591.9
303.15 K, x2 = 0.456	1028.38	1609.4
303.15 K, x2 = 0.5691	1026.07	1625.7
303.15 K, x2 = 0.6614	1023.61	1640.8
303.15 K, x2 = 0.7451	1020.96	1655
303.15 K, x2 = 0.8197	1018.17	1667.5
303.15 K, x2 = 0.854	1016.66	1674.1
303.15 K, x2 = 0.8865	1015.15	1680.6
303.15 K, x2 = 0.9461	1011.9	1691.5
303.15 K, x2 = 0.9738	1009.95	1697.5
308.15 K, x2 = 0	1030.43	1539.5
308.15 K, x2 = 0.1789	1028.36	1558.2
308.15 K, x2 = 0.3286	1026.41	1576.6
308.15 K, x2 = 0.456	1024.37	1594
308.15 K, x2 = 0.5691	1022.01	1610.2
308.15 K, x2 = 0.6614	1019.55	1625.2
308.15 K, x2 = 0.7451	1016.86	1639.4
308.15 K, x2 = 0.8197	1014.03	1651.8
308.15 K, x2 = 0.854	1012.55	1658.3
308.15 K, x2 = 0.8865	1011.03	1664.7
308.15 K, x2 = 0.9461	1007.83	1675.5
308.15 K, x2 = 0.9738	1005.91	1681.3
313.15 K, x2 = 0	1026.48	1524.2
313.15 K, x2 = 0.1789	1024.36	1543
313.15 K, x2 = 0.3286	1022.38	1561.3
313.15 K, x2 = 0.456	1020.33	1578.7
313.15 K, x2 = 0.5691	1017.96	1594.7
313.15 K, x2 = 0.6614	1015.47	1609.7
313.15 K, x2 = 0.7451	1012.76	1623.8
313.15 K, x2 = 0.8197	1009.92	1636
313.15 K, x2 = 0.854	1008.44	1642.5
313.15 K, x2 = 0.8865	1006.91	1648.8
313.15 K, x2 = 0.9461	1003.74	1659.5
313.15 K, x2 = 0.9738	1001.87	1665.2
318.15 K, x2 = 0	1022.53	1508.8
318.15 K, x2 = 0.1789	1020.38	1527.7
318.15 K, x2 = 0.3286	1018.35	1546
318.15 K, x2 = 0.456	1016.27	1563.2
318.15 K, x2 = 0.5691	1013.89	1579.2
318.15 K, x2 = 0.6614	1011.39	1594.1
318.15 K, x2 = 0.7451	1008.66	1608
318.15 K, x2 = 0.8197	1005.81	1620.2
318.15 K, x2 = 0.854	1004.31	1626.6
318.15 K, x2 = 0.8865	1002.79	1632.8
318.15 K, x2 = 0.9461	999.607	1643.3
318.15 K, x2 = 0.9738	997.788	1649
323.15 K, x2 = 0	1018.58	1493.4
323.15 K, x2 = 0.1789	1016.38	1512.4
323.15 K, x2 = 0.3286	1014.32	1530.6
323.15 K, x2 = 0.456	1012.2	1547.7
323.15 K, x2 = 0.5691	1009.81	1563.6
323.15 K, x2 = 0.6614	1007.31	1578.4
323.15 K, x2 = 0.7451	1004.57	1592.2
323.15 K, x2 = 0.8197	1001.7	1604.3
323.15 K, x2 = 0.854	1000.21	1610.7
323.15 K, x2 = 0.8865	998.693	1616.8
323.15 K, x2 = 0.9461	995.464	1627.2
323.15 K, x2 = 0.9738	993.693	1632.8
